Measured values from patent publication US5306712A, “Fungicidal silicon-containing compounds and their agrochemical and medicinal uses” (Sanyo Company, Limited, priority 1991, dated 1994).

Tests used:
[1] = system: Tyromyces palustris (Fungus E); test: Wood-preservative Activity (Antidecay); conditions: paper disc, 30 μl of 300 ppm acetone solution, 25° C., 5 days
Experimental: (§1) A fungal disc of about 4 mm diameter was inoculated on an agar medium (2% by weight malt extract, 1% glucose, 0.3% peptone and 2% agar) in a petri dish of diameter 9 cm, by placing the disc on the center of the medium. Paper disc specimens were prepared by impregnating 30 μl of an acetone solution containing 300 ppm of the test compound into the disc (diameter 8 mm, thickness 0.7 mm) and then subjecting it to dry sterilization. The disc specimens were placed in a circle at about 1 cm distance from the fringe of the grown fungus, three days after the inoculation. The specimens were then maintained at 25° C. for 5 days, after which the antifungal activity was determined by visual observation of infection of the specimens by the fungus.
(§2) The procedure described in Experiment 7 was repeated, except that the fungi tested were Coriolus versicolor (Fungus D) and Tyromyces palustris (Fungus E), which are prescribed in JIS A-9201.

[2] = system: Coriolus versicolor (Fungus D); test: Wood-preservative Activity (Antidecay); conditions: paper disc, 30 μl of 300 ppm acetone solution, 25° C., 5 days
Experimental: as §1, §2

[3] = system: Gliocladium virens (Fungus B); test: Antifungal Activity (paper disc on agar); conditions: 30 μl of 300 ppm acetone solution, 25° C., 5 days
Experimental: (§3) A fungal disc of about 4 mm diameter was inoculated on an agar medium (2% by weight malt extract, 1% glucose, 0.3% peptone and 2% agar) in a petri dish of diameter 9 cm, by placing the disc on the center of the medium. Paper disc specimens were prepared by impregnating 30 μl of an acetone solution containing 300 ppm of the test compound into the disc (diameter 8 mm, thickness 0.7 mm) and then subjecting it to dry sterilization. The disc specimens were placed in a circle at about 1 cm distance from the fringe of the grown fungus, three days after the inoculation. The specimens were then maintained at 25° C. for 5 days, after which the antifungal activity was determined by visual observation of infection of the specimens by the fungus. The fungi tested were:
Gliocladium virens (Fungus B), and

[4] = system: Fusarium moliniforme (Fungus C); test: Antifungal Activity (paper disc on agar); conditions: 30 μl of 300 ppm acetone solution, 25° C., 5 days
Experimental: as §3
Fusarium moliniforme (Fungus C).
The antifungal activity is indicated by the following ratings:

[5] = system: Aspergillus niger (Fungus A); test: Antifungal Activity (paper disc on agar); conditions: 30 μl of 300 ppm acetone solution, 25° C., 5 days
Experimental: as §3
Aspergillus niger (Fungus A),

Row | Structure (SMILES) | wood-preservative (antidecay) activity, Fungus E [1] | wood-preservative (antidecay) activity, Fungus D [2] | antifungal activity, Fungus B [3] | antifungal activity, Fungus C [4] | antifungal activity, Fungus A [5]
1 | CC[Si](C)(C)CC(O)(Cn1cncn1)c1ccc(F)cc1 (stereo not shown) [Compound 1-70, 3-Dimethylethylsilyl-2-(4-fluorophenyl)-1-(1H-1,2,4-triazol-1-yl)-2-propanol] | + | + | + | + | -
2 | C[Si](C)(C)CC(O)(Cn1cncn1)c1ccc(Cl)c(Cl)c1 (stereo not shown) [Compound 1-29, 2-(3,4-Dichlorophenyl)-1-(1H-1,2,4-triazol-1-yl)-3-trimethylsilyl-2-propanol] | - | - | - | + | -
3 | C[Si](C)(C)CC(O)(Cn1cncn1)c1ccc(Br)cc1 (stereo not shown) [Compound 1-4, 2-(4-Bromophenyl)-1-(1H-1,2,4-triazol-1-yl)-3-trimethylsilyl-2-propanol] | + | + | + | + | +
4 | C[Si](C)(C)CC(O)(Cn1cncn1)c1ccc(Cl)cc1 (stereo not shown) [Compound 1-83, Adduct of 2-(4-chlorophenyl)-1-(1H-1,2,4-triazol-1-yl)-3-trimethylsilyl-2-propanol with saccharin] | + | + | + | + | -
5 | C[Si](C)(C)CC(O)(Cn1cncn1)c1ccccc1Cl (stereo not shown) [Compound 1-16, 2-(2-Chlorophenyl)-1-(1H-1,2,4-triazol-1-yl)-3-trimethylsilyl-2-propanol] | + | + | + | + | +
6 | C[Si](C)(C)CC(O)(Cn1cncn1)c1ccc(Cl)cc1Cl (stereo not shown) [Compound 1-11, 2-(2,4-Dichlorophenyl)-1-(1H-1,2,4-triazol-1-yl)-3-trimethysilyl-2-propanol] | + | + | + | + | +
7 | C[Si](C)(C)CC(O)(Cn1ccnc1)c1ccc(F)cc1F (stereo not shown) [Compound 1-50, 2-(2,4-Difluorophenyl)-1-(1H-1,3-imidazol-1-yl)-3-trimethylsilyl-2-propanol] | - | + | - | + | -
8 | C[Si](C)(CC(O)(Cn1cncn1)c1ccc(F)cc1)c1ccc(Cl)cc1 (stereo not shown) [Compound 1-69, 3-[(4-Chlorophenyl)dimethylsilyl]-2-(4-fluorophenyl)-1-(1H-1,2,4-triazol-1-yl)-2-propanol] | - | + | - | + | -
9 | Cc1ccc(C(O)(Cn2cncn2)C[Si](C)(C)C)cc1 (stereo not shown) [Compound 1-5, 2-(4-Methylphenyl)-1-(1H-1,2,4-triazol-1-yl)-3-trimethylsilyl-2-propanol] | + | + | + | + | +
10 | C[Si](C)(C)CC(O)(Cn1cncn1)c1ccc(C(F)(F)F)cc1 (stereo not shown) [Compound 1-6, 1-(1H-1,2,4-Triazol-1-yl)-2-(4-trifluoromethylphenyl)-3-trimethylsilyl-2-propanol] | + | + | - | + | +
11 | C[Si](C)(C)CC(O)(Cn1cncn1)c1ccccc1 (stereo not shown) [Compound 1-1, 2-Phenyl-1-(1H-1,2,4-triazol-1-yl)-3-trimethylsilyl-2-propanol] | + | + | - | + | +
12 | C[Si](C)(C)CC(O)(Cn1cncn1)c1ccccc1F (stereo not shown) [Compound 1-17, 2-(2-Fluorophenyl)-1-(1H-1,2,4-triazol-1-yl)-3-trimethylsilyl-2-propanol] | + | + | + | + | +
13 | C[Si](C)(C)CC(O)(Cn1cncn1)c1ccc(F)cc1 (stereo not shown) [Compound 1-78, Adduct of 2-(4-fluorophenyl)-1-(1H1,2,4-triazol-1-yl)-3-trimethylsilyl-2-propanol with saccharin] | + | + | + | + | -
14 | C[Si](C)(C)CC(O)(Cn1cncn1)c1ccc(Cl)c(Cl)c1Cl (stereo not shown) [Compound 1-64, 1-(1H-1,2,4-Triazol-1-yl)-2-(2,3,4-trichlorophenyl)-3-trimethylsilyl-2-propanol] | + | - | - | - | -
15 | C[Si](C)(C)CC(O)(Cn1cncn1)c1ccc(Cl)cc1F (stereo not shown) [Compound 1-14, 2-(4-Chloro-2-fluorophenyl)-1-(1H-1,2,4-triazol-1-yl)-3-trimethylsilyl-2-propanol] | + | + | + | + | +
16 | C[Si](C)(C)CC(O)(Cn1ccnc1)c1ccc(Cl)cc1Cl (stereo not shown) [Compound 1-49, 2-(2,4-Dichlorophenyl)-1-(1H-1,3-imidazol-1-yl)-3-trimethylsilyl-2-propanol] | - | + | - | - | -
17 | C[Si](C)(C)CC(O)(Cn1cncn1)c1cc(Cl)c(Cl)cc1Cl (stereo not shown) [Compound 1-65, 1-(1H-1,2,4-Triazol-1-yl)-2-(2,4,5-trichlorophenyl)-3-trimethylsilyl-2-propanol] | - | - | - | + | -
